Data on 16 molecules can be found in PubChem BioAssay AID220 (DTP/NCI, 2004).

Several values for one entry are separate records, joined by “and”; a condition that tells them apart may be missing. Equal values may be shown once. Inconclusive results are not listed.

The experiment relates to CD8F1 mice, subcutaneous mammary adenocarcinoma, T/C%. In words: NCI In Vivo Anticancer Drug Screen. Data for tumor model Mammary Adenocarcinoma CD8F1 (subcutaneous) in CD8F1. The settings on record: higher = larger tumour. The procedure, abridged:
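Antitumor activity is assessed in transplantable-tumor mice by comparing the treated group with a vehicle-treated control group. Survival or tumor size serves as the measure, reported as T divided by C.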

[1] abbreviates: endpoint: median tumor weight change, dose: 125.0 mg/kg/injection, schedule: Q01DX001 (ip), vehicle: water.

`COc1cc(NCc2ccc3nc(N)nc(N)c3c2C)cc(OC)c1OC` (tested in a mixture with another compound): the T/C by setting is: (endpoint: median tumor weight (est.), dose: 32.0 mg/kg/injection, schedule: Q04DX007 (ip), vehicle: water) 87 % of control; (endpoint: median tumor weight (est.), dose: 46.0 mg/kg/injection, schedule: Q07DX005 (ip), vehicle: water) 24 % of control; (endpoint: median tumor weight (est.), dose: 47.4 mg/kg/injection, schedule: Q04DX007 (ip), vehicle: water) 35 % of control; (endpoint: median tumor weight (est.), dose: 70.0 mg/kg/injection, schedule: Q07DX005 (ip), vehicle: water) 27 % of control; (endpoint: median tumor weight (est.), dose: 71.1 mg/kg/injection, schedule: Q04DX007 (ip), vehicle: water) 113 % of control; (endpoint: median tumor weight (est.), dose: 105.0 mg/kg/injection, schedule: Q07DX005 (ip), vehicle: water) 24 % of control. The T/C runs as follows: (endpoint: median tumor weight (est.), dose: 106.7 mg/kg/injection, schedule: Q04DX007 (ip), vehicle: water) 42 % of control; (endpoint: median tumor weight (est.), dose: 157.0 mg/kg/injection, schedule: Q07DX005 (ip), vehicle: water) 13 % of control; (endpoint: median tumor weight (est.), dose: 160.0 mg/kg/injection, schedule: Q04DX007 (ip), vehicle: water) 32 % of control.
Turning to `CC(=O)NC(C=O)OCC=O` (stereo unspecified), the T/C is 85 % of control (endpoint: median tumor weight change, dose: 62.5 mg/kg/injection, schedule: Q01DX001 (ip), vehicle: water); 118 % of control under setting [1]; 118 % of control (endpoint: median tumor weight change, dose: 250.0 mg/kg/injection, schedule: Q01DX001 (ip), vehicle: water); 34 % of control (endpoint: median tumor weight change, dose: 500.0 mg/kg/injection, schedule: Q01DX001 (ip), vehicle: water).
For `CCN(CC)CCNc1ccc(C)c2sc3ccccc3c(=O)c12`, the T/C is, setting by setting: (endpoint: median tumor weight (est.), dose: 12.5 mg/kg/injection, schedule: Q07DX005 (ip), vehicle: saline) 156 % of control; (endpoint: median tumor weight (est.), dose: 25.0 mg/kg/injection, schedule: Q07DX005 (ip), vehicle: saline) 198 % of control; (endpoint: median tumor weight (est.), dose: 50.0 mg/kg/injection, schedule: Q07DX005 (ip), vehicle: saline) 166 % of control; (endpoint: median tumor weight (est.), dose: 100.0 mg/kg/injection, schedule: Q07DX005 (ip), vehicle: saline) 76 % of control; (endpoint: median tumor weight (est.), dose: 200.0 mg/kg/injection, schedule: Q07DX005 (ip), vehicle: saline) 42 % of control.
Consider `CCC(C)C(=O)OC1C(=O)OC2CC3C(C)=CC(=O)C(O)C3(C)C3C4(O)OCC23C1C(C)C4O` (stereo unspecified), for which the T/C is 70 % of control (endpoint: median tumor weight (est.), dose: 0.5 mg/kg/injection, schedule: Q07DX005 (ip), vehicle: saline); 237 % of control (endpoint: median tumor weight (est.), dose: 1.0 mg/kg/injection, schedule: Q07DX005 (ip), vehicle: saline with Tween-80); 95 % of control (endpoint: median tumor weight (est.), dose: 1.0 mg/kg/injection, schedule: Q07DX005 (ip), vehicle: saline); 70 % of control (endpoint: median tumor weight (est.), dose: 2.0 mg/kg/injection, schedule: Q07DX005 (ip), vehicle: saline); 165 % of control (endpoint: median tumor weight (est.), dose: 4.0 mg/kg/injection, schedule: Q07DX005 (ip), vehicle: saline with Tween-80); 74 % of control (endpoint: median tumor weight (est.), dose: 4.0 mg/kg/injection, schedule: Q07DX005 (ip), vehicle: saline).
Consider `CCCCCn1c(C)cc(/C=C\c2ccc3cc(C)ccc3[n+]2C)c1C`, for which the T/C is 87 % of control (endpoint: median tumor weight (est.), dose: 39.0 micrograms/kg/injection, schedule: Q07DX005 (ip), vehicle: Klucel (hydroxypropylcellulose) (HPC)); 72 % of control (endpoint: median tumor weight (est.), dose: 78.0 micrograms/kg/injection, schedule: Q07DX005 (ip), vehicle: Klucel (hydroxypropylcellulose) (HPC)); 76 % of control (endpoint: median tumor weight (est.), dose: 156.0 micrograms/kg/injection, schedule: Q07DX005 (ip), vehicle: Klucel (hydroxypropylcellulose) (HPC)); 111 % of control (endpoint: median tumor weight (est.), dose: 312.0 micrograms/kg/injection, schedule: Q07DX005 (ip), vehicle: Klucel (hydroxypropylcellulose) (HPC)); 107 % of control (endpoint: median tumor weight (est.), dose: 625.0 micrograms/kg/injection, schedule: Q07DX005 (ip), vehicle: Klucel (hydroxypropylcellulose) (HPC)).
For the molecule `COc1cccc2c1C(=O)c1c(O)c3c(c(O)c1C2=O)C[C@@](O)(/C(C)=N/NC(=O)c1ccccc1)C[C@@H]3OC1CC(N)C(O)C(C)O1` (stereo partly specified), the T/C (endpoint: median tumor weight (est.), dose: 3.12 mg/kg/injection, schedule: Q07DX005 (ip), vehicle: water) was 263 % of control and the T/C (endpoint: median tumor weight (est.), dose: 6.25 mg/kg/injection, schedule: Q07DX005 (ip), vehicle: water) is 82 % of control.
Consider `O=C(Nc1nncs1)c1ccncc1`, for which the T/C (endpoint: median tumor weight (est.), dose: 25.0 mg/kg/injection, schedule: Q07DX005 (ip), vehicle: saline with Tween-80) was 151 % of control and the T/C (endpoint: median tumor weight (est.), dose: 800.0 mg/kg/injection, schedule: Q07DX005 (ip), vehicle: saline with Tween-80) is 69 % of control.
As for `O=C(/C=C(\Cl)C(=O)NO)NO`, the T/C was 111 % of control (endpoint: median tumor weight change, dose: 62.5 mg/kg/injection, schedule: Q01DX001 (ip), vehicle: suspension in saline); 79 % of control (endpoint: median tumor weight change, dose: 125.0 mg/kg/injection, schedule: Q01DX001 (ip), vehicle: suspension in saline); 83 % of control (endpoint: median tumor weight change, dose: 250.0 mg/kg/injection, schedule: Q01DX001 (ip), vehicle: suspension in saline).
For `C=C(Cl)C(=NC(C)(C)C)Nc1ccccc1C`, the T/C by setting is: (endpoint: median tumor weight change, dose: 31.25 mg/kg/injection, schedule: Q01DX001 (ip), vehicle: Klucel (hydroxypropylcellulose) (HPC)) 86 % of control; (endpoint: median tumor weight change, dose: 62.5 mg/kg/injection, schedule: Q01DX001 (ip), vehicle: Klucel (hydroxypropylcellulose) (HPC)) 85 % of control.
For `CCn1cnc2c(=S)nc[nH]c21`, the T/C was 66 % of control (endpoint: median tumor weight change, dose: 125.0 mg/kg/injection, schedule: Q01DX001 (ip), vehicle: saline with Tween-80); 50 % of control (endpoint: median tumor weight change, dose: 250.0 mg/kg/injection, schedule: Q01DX001 (ip), vehicle: saline with Tween-80); 64 % of control (endpoint: median tumor weight change, dose: 500.0 mg/kg/injection, schedule: Q01DX001 (ip), vehicle: saline with Tween-80); 39 % of control (endpoint: median tumor weight change, dose: 1000.0 mg/kg/injection, schedule: Q01DX001 (ip), vehicle: saline with Tween-80).
In the case of `C=C(C)[C@]12CC(C)C34OC(/C=C\C=C\CCCCCCCCC)(O[C@@H]1[C@@H]3[C@@H]1O[C@]1(CO)[C@@H](O)[C@]1(O)C(=O)C(C)=C[C@@H]41)O2` (stereo partly specified), the T/C (endpoint: median tumor weight (est.), dose: 0.37 mg/kg/injection, schedule: Q07DX002 (ip), vehicle: saline + alcohol) was 110 % of control; the T/C (endpoint: median tumor weight (est.), dose: 0.37 mg/kg/injection, schedule: Q07DX005 (ip), vehicle: saline + alcohol) was 82 % of control; the T/C (endpoint: median tumor weight (est.), dose: 0.75 mg/kg/injection, schedule: Q07DX002 (ip), vehicle: saline + alcohol) was 121 % of control; the T/C (endpoint: median tumor weight (est.), dose: 0.75 mg/kg/injection, schedule: Q07DX005 (ip), vehicle: saline + alcohol) was 116 % of control; the T/C (endpoint: median tumor weight (est.), dose: 1.5 mg/kg/injection, schedule: Q07DX002 (ip), vehicle: saline + alcohol) is 201 % of control; the T/C (endpoint: median tumor weight (est.), dose: 1.5 mg/kg/injection, schedule: Q07DX005 (ip), vehicle: saline + alcohol) was 72 % of control.
Take `COc1cccc2c1C(=O)c1c(O)c3c(c(O)c1C2=O)C[C@@](O)(C(O)CO)C[C@@H]3OC1CC(N(Cc2ccccc2)Cc2ccccc2)C(O)C(C)O1` (stereo partly specified): the T/C is 14 % of control (endpoint: median tumor weight change, dose: 62.0 mg/kg/injection, schedule: Q01DX001 (ip), vehicle: water) and -48 % of control under setting [1].
`CCCCCCCCCCCCCCCCS(=O)CC(O)COC(=O)c1ccc(C(=O)OCC(O)CS(=O)CCCCCCCCCCCCCCCC)cc1` (stereo unspecified): the T/C is, setting by setting: (endpoint: median tumor weight (est.), dose: 12.5 mg/kg/injection, schedule: Q07DX005 (ip), vehicle: saline + Tween-80 + alcohol) 68 % of control and 88 % of control; (endpoint: median tumor weight (est.), dose: 25.0 mg/kg/injection, schedule: Q07DX005 (ip), vehicle: saline + Tween-80 + alcohol) 69 % of control and 79 % of control; (endpoint: median tumor weight (est.), dose: 200.0 mg/kg/injection, schedule: Q07DX005 (ip), vehicle: saline + Tween-80 + alcohol) 48 % of control and 64 % of control; (endpoint: median tumor weight (est.), dose: 400.0 mg/kg/injection, schedule: Q07DX005 (ip), vehicle: saline + Tween-80 + alcohol) 78 % of control and 84 % of control.
As to `CCCCCCCCCCCCN1C(C)=CS/C1=C\C=C\c1scc(C)[n+]1CCCCCCCCCCCC`, the T/C was 80 % of control (endpoint: median tumor weight change, dose: 7.82 mg/kg/injection, schedule: Q01DX001 (ip), vehicle: saline with Tween-80); 92 % of control (endpoint: median tumor weight change, dose: 15.63 mg/kg/injection, schedule: Q01DX001 (ip), vehicle: saline with Tween-80); 65 % of control (endpoint: median tumor weight change, dose: 31.25 mg/kg/injection, schedule: Q01DX001 (ip), vehicle: saline with Tween-80).
Regarding `CCC(=O)O[C@H]1CC[C@H]2[C@@H]3CCC4=CC(=O)CC[C@]4(C)[C@H]3CC[C@]12C`, the T/C is, setting by setting: (endpoint: median tumor weight (est.), dose: 160.0 mg/kg/injection, schedule: Q07DX005 (ip), vehicle: Klucel (hydroxypropylcellulose) (HPC)) 99 % of control; (endpoint: median tumor weight (est.), dose: 640.0 mg/kg/injection, schedule: Q07DX005 (ip), vehicle: Klucel (hydroxypropylcellulose) (HPC)) 48 % of control.
With `O=C(O)CCCCCCCC(=O)O`, the T/C reads like this: (endpoint: median tumor weight change, dose: 225.0 mg/kg/injection, schedule: Q01DX001 (ip), vehicle: distilled water + Tween-80) 122 % of control; (endpoint: median tumor weight change, dose: 450.0 mg/kg/injection, schedule: Q01DX001 (ip), vehicle: distilled water + Tween-80) 82 % of control.
